In the kinase profiling compilation of Christmann-Franck et al. (2016):

Columns and labels:
Assay in all cases: radiometric filter-binding kinase assay
[1] = biological target: BTK (human) (UniProt Q06187)
[2] = biological target: CDK2 CCNA2 (human) (UniProt P20248+P24941)
[3] = biological target: CHEK1 (human) (UniProt O14757)
[4] = biological target: CSNK2A1 (human) (UniProt P68400)
[5] = biological target: EEF2K (human) (UniProt O00418)
[6] = biological target: IKBKB (human) (UniProt O14920)
Sequence of IKBKB (human) (O14920 whole entry, looked up): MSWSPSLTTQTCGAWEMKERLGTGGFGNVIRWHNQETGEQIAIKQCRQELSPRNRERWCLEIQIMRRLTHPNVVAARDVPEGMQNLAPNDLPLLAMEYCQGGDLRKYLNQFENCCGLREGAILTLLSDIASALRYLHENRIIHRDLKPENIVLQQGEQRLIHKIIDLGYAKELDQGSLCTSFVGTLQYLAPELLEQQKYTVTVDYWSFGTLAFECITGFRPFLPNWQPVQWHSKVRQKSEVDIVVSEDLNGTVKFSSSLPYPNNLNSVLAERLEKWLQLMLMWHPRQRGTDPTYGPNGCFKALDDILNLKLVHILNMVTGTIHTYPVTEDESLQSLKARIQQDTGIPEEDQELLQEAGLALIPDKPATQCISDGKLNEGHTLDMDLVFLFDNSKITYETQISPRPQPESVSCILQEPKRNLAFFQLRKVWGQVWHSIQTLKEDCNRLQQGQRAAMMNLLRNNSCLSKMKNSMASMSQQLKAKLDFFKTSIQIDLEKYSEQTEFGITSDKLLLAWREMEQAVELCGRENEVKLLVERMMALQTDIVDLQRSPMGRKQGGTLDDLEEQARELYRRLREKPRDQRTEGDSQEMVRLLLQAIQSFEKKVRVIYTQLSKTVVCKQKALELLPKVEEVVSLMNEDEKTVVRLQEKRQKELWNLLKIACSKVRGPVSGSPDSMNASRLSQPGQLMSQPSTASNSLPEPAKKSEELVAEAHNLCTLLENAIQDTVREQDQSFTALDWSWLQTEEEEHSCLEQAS

[7] = biological target: INSRR (human) (UniProt P14616)
[8] = biological target: MAP2K1 (human) (UniProt Q02750)
Sequence of MAP2K1 (human) (Q02750 whole entry, looked up): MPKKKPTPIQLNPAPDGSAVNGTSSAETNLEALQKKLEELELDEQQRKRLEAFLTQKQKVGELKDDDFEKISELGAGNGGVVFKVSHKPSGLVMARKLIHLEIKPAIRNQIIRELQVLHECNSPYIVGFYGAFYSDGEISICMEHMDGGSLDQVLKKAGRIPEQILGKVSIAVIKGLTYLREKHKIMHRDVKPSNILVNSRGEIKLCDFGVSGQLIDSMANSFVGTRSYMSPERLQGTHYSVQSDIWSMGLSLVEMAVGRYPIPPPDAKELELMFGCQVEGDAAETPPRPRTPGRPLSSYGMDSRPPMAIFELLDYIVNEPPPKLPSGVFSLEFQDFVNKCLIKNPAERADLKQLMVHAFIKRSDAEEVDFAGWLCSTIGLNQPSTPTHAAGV

[9] = biological target: MAPK9 (human) (UniProt P45984)
[10] = biological target: MAPKAPK2 (human) (UniProt P49137)
[11] = biological target: MARK3 (human) (UniProt P27448)
[12] = biological target: MKNK2 (human) (UniProt Q9HBH9)
Sequence of MKNK2 (human) (Q9HBH9 whole entry, looked up): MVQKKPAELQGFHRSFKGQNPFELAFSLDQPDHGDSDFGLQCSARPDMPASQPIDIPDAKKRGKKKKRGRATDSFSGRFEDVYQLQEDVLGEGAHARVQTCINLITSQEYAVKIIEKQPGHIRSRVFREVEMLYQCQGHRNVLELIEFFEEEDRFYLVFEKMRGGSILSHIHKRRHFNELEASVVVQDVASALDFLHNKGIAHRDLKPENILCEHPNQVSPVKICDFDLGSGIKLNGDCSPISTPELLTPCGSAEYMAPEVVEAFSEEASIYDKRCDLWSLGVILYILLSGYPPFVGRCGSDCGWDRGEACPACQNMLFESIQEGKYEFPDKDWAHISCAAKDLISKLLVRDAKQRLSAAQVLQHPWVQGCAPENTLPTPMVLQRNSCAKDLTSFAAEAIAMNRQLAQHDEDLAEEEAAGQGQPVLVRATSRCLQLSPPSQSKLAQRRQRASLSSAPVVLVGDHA

[13] = biological target: MYLK (human) (UniProt Q15746)
[14] = biological target: NEK6 (human) (UniProt Q9HC98)
Sequence of NEK6 (human) (Q9HC98 whole entry, looked up): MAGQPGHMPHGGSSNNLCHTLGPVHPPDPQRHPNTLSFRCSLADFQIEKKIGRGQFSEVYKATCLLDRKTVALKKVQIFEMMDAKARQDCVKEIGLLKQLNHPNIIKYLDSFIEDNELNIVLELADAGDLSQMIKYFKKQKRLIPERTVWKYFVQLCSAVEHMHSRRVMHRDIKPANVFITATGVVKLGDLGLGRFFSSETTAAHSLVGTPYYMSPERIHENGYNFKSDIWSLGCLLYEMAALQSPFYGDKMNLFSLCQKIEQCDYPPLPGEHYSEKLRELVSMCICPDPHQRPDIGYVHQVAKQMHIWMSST

[15] = biological target: PAK6 (human) (UniProt Q9NQU5)
[16] = biological target: PIM1 (human) (UniProt P11309)
Sequence of PIM1 (human) (P11309 whole entry, looked up): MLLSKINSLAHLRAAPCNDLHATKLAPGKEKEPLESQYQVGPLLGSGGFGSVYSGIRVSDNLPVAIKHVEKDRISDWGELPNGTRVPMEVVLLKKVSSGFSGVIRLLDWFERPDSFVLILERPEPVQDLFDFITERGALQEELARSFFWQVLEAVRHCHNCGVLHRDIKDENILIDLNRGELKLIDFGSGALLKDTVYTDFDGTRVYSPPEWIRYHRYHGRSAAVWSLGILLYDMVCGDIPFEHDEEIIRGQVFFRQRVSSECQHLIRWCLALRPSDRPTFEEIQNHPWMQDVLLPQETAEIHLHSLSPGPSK

[17] = biological target: PIM2 (human) (UniProt Q9P1W9)
[18] = biological target: PIM3 (human) (UniProt Q86V86)
[19] = biological target: PKN2 (human) (UniProt Q16513)
Sequence of PKN2 (human) (Q16513 whole entry, looked up): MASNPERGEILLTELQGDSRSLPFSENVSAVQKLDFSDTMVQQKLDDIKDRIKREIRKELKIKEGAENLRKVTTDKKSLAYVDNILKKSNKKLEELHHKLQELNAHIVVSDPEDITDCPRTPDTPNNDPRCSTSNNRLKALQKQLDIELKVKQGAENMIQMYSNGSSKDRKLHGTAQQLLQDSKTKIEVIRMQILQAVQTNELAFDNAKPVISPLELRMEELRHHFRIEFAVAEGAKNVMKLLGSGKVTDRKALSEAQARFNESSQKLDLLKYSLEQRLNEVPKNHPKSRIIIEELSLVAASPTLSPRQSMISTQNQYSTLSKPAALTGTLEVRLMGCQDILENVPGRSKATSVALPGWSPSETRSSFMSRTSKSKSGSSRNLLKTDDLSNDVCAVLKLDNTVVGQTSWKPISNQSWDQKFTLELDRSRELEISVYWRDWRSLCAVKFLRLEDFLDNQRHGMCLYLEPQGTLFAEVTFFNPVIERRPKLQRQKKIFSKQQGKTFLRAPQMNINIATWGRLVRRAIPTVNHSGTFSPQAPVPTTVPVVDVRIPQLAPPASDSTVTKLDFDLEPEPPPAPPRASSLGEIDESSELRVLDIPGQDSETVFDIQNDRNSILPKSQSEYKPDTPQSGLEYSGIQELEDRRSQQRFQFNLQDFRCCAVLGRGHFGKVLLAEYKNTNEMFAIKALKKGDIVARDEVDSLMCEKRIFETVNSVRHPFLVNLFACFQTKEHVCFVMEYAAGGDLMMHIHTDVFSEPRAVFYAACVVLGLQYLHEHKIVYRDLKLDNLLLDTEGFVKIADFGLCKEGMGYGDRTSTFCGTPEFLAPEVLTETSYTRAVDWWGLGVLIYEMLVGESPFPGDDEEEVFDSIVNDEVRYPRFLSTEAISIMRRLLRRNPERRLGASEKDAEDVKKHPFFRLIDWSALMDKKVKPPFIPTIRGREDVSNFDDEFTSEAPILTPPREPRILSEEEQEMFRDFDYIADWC

[20] = biological target: RPS6KA5 KD1 KD2 (human) (UniProt O75582)
[21] = test system: RPS6KB1 (human), P23443 [T412E]
[22] = biological target: SRPK1 (human) (UniProt Q96SB4)
[23] = biological target: STK3 (human) (UniProt Q13188)
Sequence of STK3 (human) (Q13188 whole entry, looked up): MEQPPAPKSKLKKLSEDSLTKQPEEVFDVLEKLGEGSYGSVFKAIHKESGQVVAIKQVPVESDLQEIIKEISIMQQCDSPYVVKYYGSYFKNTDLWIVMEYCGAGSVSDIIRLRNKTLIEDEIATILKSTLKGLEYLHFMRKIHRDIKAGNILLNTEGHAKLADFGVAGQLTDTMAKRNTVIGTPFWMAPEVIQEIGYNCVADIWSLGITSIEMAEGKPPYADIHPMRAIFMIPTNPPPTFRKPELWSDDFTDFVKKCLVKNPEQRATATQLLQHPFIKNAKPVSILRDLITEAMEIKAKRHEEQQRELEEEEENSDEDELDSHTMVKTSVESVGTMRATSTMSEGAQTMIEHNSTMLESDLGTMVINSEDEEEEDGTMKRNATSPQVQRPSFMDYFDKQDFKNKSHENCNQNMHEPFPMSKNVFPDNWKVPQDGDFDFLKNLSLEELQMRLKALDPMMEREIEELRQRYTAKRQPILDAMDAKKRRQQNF

[24] = biological target: TBK1 (human) (UniProt Q9UHD2)
[25] = biological target: YES1 (human) (UniProt P07947)

Sequence of BTK (human) (Q06187 whole entry, looked up): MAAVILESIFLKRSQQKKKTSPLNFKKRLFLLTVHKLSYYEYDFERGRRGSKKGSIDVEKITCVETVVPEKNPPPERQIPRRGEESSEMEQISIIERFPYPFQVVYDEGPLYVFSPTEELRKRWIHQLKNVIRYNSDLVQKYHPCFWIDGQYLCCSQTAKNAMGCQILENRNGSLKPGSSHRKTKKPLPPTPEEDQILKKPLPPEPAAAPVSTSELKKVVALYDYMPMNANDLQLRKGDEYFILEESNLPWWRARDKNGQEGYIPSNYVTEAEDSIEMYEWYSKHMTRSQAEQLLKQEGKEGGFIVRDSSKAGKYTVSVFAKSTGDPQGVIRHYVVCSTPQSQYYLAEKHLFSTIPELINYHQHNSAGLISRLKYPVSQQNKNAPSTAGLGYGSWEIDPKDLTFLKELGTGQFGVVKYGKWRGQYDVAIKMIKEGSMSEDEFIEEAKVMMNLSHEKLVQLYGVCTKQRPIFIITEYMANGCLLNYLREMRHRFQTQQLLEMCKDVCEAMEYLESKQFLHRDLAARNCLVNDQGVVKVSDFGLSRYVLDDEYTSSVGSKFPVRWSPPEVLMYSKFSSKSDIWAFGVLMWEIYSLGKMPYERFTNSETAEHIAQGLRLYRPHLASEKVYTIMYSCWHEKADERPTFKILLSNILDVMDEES
Sequence of CHEK1 (human) (O14757 whole entry, looked up): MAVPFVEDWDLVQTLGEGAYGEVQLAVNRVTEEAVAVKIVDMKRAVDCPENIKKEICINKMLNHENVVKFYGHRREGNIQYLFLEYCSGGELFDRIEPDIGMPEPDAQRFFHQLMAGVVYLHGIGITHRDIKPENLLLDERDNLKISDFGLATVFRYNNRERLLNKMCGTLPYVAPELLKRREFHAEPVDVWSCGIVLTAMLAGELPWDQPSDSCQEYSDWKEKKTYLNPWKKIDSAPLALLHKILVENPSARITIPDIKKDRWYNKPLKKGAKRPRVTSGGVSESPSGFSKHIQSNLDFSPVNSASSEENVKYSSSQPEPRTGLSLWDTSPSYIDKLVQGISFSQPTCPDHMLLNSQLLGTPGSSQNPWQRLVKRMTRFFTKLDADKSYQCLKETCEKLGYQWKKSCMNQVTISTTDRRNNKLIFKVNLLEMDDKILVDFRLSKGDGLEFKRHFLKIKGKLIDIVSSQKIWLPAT

Work on `C/C(=C1/C(=O)Nc2ccc(NC(N)=O)cc21)c1ccc[nH]1` yielded a residual activity ([1]; compound 0.001 µM) of 95%, a residual activity ([1]; compound 0.01 µM) of 85% and a residual activity ([1]; compound 0.1 µM) of 93%. The residual activity ([2]; compound 0.001 µM) was 102%, the residual activity ([2]; compound 0.01 µM) was 87% and the residual activity ([2]; compound 0.1 µM) was 85%. For the same compound, the residual activity ([3]; compound 0.001 µM) was 89%, the residual activity ([3]; compound 0.1 µM) was 21% and the residual activity ([4]; compound 0.001 µM) was 92%. It also gave a residual activity ([4]; compound 0.01 µM) of 91%, a residual activity ([4]; compound 0.1 µM) of 86% and a residual activity ([5]; compound 0.01 µM) of 101%. For the same compound, the residual activity ([5]; compound 0.1 µM) was 106%, the residual activity ([6]; compound 0.001 µM) was 76% and the residual activity ([6]; compound 0.01 µM) was 74%. It also gave a residual activity ([7]; compound 0.001 µM) of 91%, a residual activity ([7]; compound 0.01 µM) of 75% and a residual activity ([7]; compound 0.1 µM) of 47%. The residual activity ([8]; compound 0.001 µM) was 87%, the residual activity ([8]; compound 0.01 µM) was 33% and the residual activity ([8]; compound 0.1 µM) was 7%. The residual activity ([9]; compound 0.01 µM) was 123%, the residual activity ([9]; compound 0.1 µM) was 118% and the residual activity ([10]; compound 0.001 µM) was 98%. The residual activity ([10]; compound 0.01 µM) was 86%, the residual activity ([11]; compound 0.001 µM) was 93% and the residual activity ([11]; compound 0.01 µM) was 61%. The residual activity ([11]; compound 0.1 µM) was 14%, the residual activity ([12]; compound 0.001 µM) was 93% and the residual activity ([12]; compound 0.01 µM) was 86%. The residual activity ([12]; compound 0.1 µM) was 78%, the residual activity ([13]; compound 0.001 µM) was 90% and the residual activity ([13]; compound 0.01 µM) was 89%. For the same compound, the residual activity ([13]; compound 0.1 µM) was 65%, the residual activity ([14]; compound 0.001 µM) was 86% and the residual activity ([14]; compound 0.01 µM) was 84%. It also gave a residual activity ([14]; compound 0.1 µM) of 82%, a residual activity ([15]; compound 0.001 µM) of 97% and a residual activity ([15]; compound 0.01 µM) of 102%. For the same compound, the residual activity ([15]; compound 0.1 µM) was 88%, the residual activity ([16]; compound 0.001 µM) was 97% and the residual activity ([16]; compound 0.01 µM) was 98%. The residual activity ([16]; compound 0.1 µM) was 69%, the residual activity ([17]; compound 0.01 µM) was 92% and the residual activity ([17]; compound 0.1 µM) was 65%. It also gave a residual activity ([18]; compound 0.001 µM) of 96%, a residual activity ([18]; compound 0.01 µM) of 73% and a residual activity ([18]; compound 0.1 µM) of 25%. The residual activity ([19]; compound 0.001 µM) was 67%, the residual activity ([19]; compound 0.01 µM) was 61% and the residual activity ([19]; compound 0.1 µM) was 36%. The residual activity ([20]; compound 0.001 µM) was 83%, the residual activity ([20]; compound 0.01 µM) was 87% and the residual activity ([20]; compound 0.1 µM) was 80%. It also gave a residual activity ([21]; compound 0.001 µM) of 95%, a residual activity ([21]; compound 0.01 µM) of 91% and a residual activity ([21]; compound 0.1 µM) of 83%. For the same compound, the residual activity ([22]; compound 0.001 µM) was 98%, the residual activity ([22]; compound 0.01 µM) was 96% and the residual activity ([22]; compound 0.1 µM) was 93%. It also gave a residual activity ([23]; compound 0.001 µM) of 83%, a residual activity ([23]; compound 0.01 µM) of 36% and a residual activity ([23]; compound 0.1 µM) of 10%. The residual activity ([24]; compound 0.001 µM) was 99%, the residual activity ([24]; compound 0.01 µM) was 83% and the residual activity ([24]; compound 0.1 µM) was 43%. The residual activity ([25]; compound 0.001 µM) was 77%, the residual activity ([25]; compound 0.01 µM) was 60% and the residual activity ([25]; compound 0.1 µM) was 42%.

In the case of `NC(=O)Nc1ccc2c(c1)/C(=C/c1cc(-c3cccnc3)c[nH]1)C(=O)N2`, the residual activity ([1]; compound 0.1 µM) is reported as 86%, the residual activity ([1]; compound 1.0 µM) is reported as 29% and the residual activity ([1]; compound 10.0 µM) is reported as 9%. It also gave a residual activity ([2]; compound 0.1 µM) of 63%, a residual activity ([2]; compound 1.0 µM) of 14% and a residual activity ([2]; compound 10.0 µM) of 6%. The residual activity ([3]; compound 0.1 µM) was 85%, the residual activity ([3]; compound 1.0 µM) was 4% and the residual activity ([3]; compound 10.0 µM) was 1%. For the same compound, the residual activity ([4]; compound 0.1 µM) was 93%, the residual activity ([4]; compound 1.0 µM) was 65% and the residual activity ([4]; compound 10.0 µM) was 21%. It also gave a residual activity ([5]; compound 0.1 µM) of 102%, a residual activity ([5]; compound 1.0 µM) of 86% and a residual activity ([5]; compound 10.0 µM) of 116%. The residual activity ([6]; compound 0.1 µM) was 75%, the residual activity ([6]; compound 10.0 µM) was 26% and the residual activity ([7]; compound 0.1 µM) was 35%. The residual activity ([7]; compound 1.0 µM) was 16%, the residual activity ([7]; compound 10.0 µM) was 5% and the residual activity ([8]; compound 0.1 µM) was 8%. It also gave a residual activity ([8]; compound 1.0 µM) of 1%, a residual activity ([8]; compound 10.0 µM) of 2% and a residual activity ([9]; compound 1.0 µM) of 43%. The residual activity ([9]; compound 10.0 µM) was 17%, the residual activity ([10]; compound 0.1 µM) was 86% and the residual activity ([10]; compound 1.0 µM) was 49%. For the same compound, the residual activity ([10]; compound 10.0 µM) was 10%, the residual activity ([11]; compound 0.1 µM) was 16% and the residual activity ([11]; compound 1.0 µM) was 5%. It also gave a residual activity ([11]; compound 10.0 µM) of 3%, a residual activity ([12]; compound 0.1 µM) of 75% and a residual activity ([12]; compound 1.0 µM) of 46%. For the same compound, the residual activity ([12]; compound 10.0 µM) was 16%, the residual activity ([13]; compound 0.1 µM) was 54% and the residual activity ([13]; compound 1.0 µM) was 11%. For the same compound, the residual activity ([13]; compound 10.0 µM) was 1%, the residual activity ([14]; compound 0.1 µM) was 92% and the residual activity ([14]; compound 1.0 µM) was 76%. It also gave a residual activity ([14]; compound 10.0 µM) of 38%, a residual activity ([15]; compound 0.1 µM) of 86% and a residual activity ([15]; compound 1.0 µM) of 77%. It also gave a residual activity ([15]; compound 10.0 µM) of 38%, a residual activity ([16]; compound 0.1 µM) of 43% and a residual activity ([16]; compound 1.0 µM) of 9%. For the same compound, the residual activity ([16]; compound 10.0 µM) was 2%, the residual activity ([17]; compound 0.1 µM) was 76% and the residual activity ([17]; compound 1.0 µM) was 34%. For the same compound, the residual activity ([17]; compound 10.0 µM) was 8%, the residual activity ([18]; compound 0.1 µM) was 30% and the residual activity ([18]; compound 1.0 µM) was 9%. For the same compound, the residual activity ([18]; compound 10.0 µM) was 7%, the residual activity ([19]; compound 0.1 µM) was 25% and the residual activity ([19]; compound 1.0 µM) was 5%. It also gave a residual activity ([19]; compound 10.0 µM) of 6%, a residual activity ([20]; compound 0.1 µM) of 98% and a residual activity ([20]; compound 1.0 µM) of 73%. The residual activity ([20]; compound 10.0 µM) was 30%, the residual activity ([21]; compound 0.1 µM) was 76% and the residual activity ([21]; compound 1.0 µM) was 32%. The residual activity ([21]; compound 10.0 µM) was 12%, the residual activity ([22]; compound 0.1 µM) was 90% and the residual activity ([22]; compound 1.0 µM) was 75%. The residual activity ([22]; compound 10.0 µM) was 36%, the residual activity ([23]; compound 0.1 µM) was 8% and the residual activity ([23]; compound 1.0 µM) was 2%. The residual activity ([23]; compound 10.0 µM) was 0%, the residual activity ([24]; compound 0.1 µM) was 27% and the residual activity ([24]; compound 1.0 µM) was 7%. For the same compound, the residual activity ([24]; compound 10.0 µM) was 11%, the residual activity ([25]; compound 0.1 µM) was 32% and the residual activity ([25]; compound 1.0 µM) was 8%. It also gave a residual activity ([25]; compound 10.0 µM) of 3%.
